Data from patent publication US20160361380A1, “COMBINATION COMPOSITIONS FOR TREATING DISORDERS REQUIRING REMOVAL OR DESTRUCTION OF UNWANTED CELLULAR PROLIFERATIONS” (Nymox Corporation, priority 2015, published 2016).
Ends that are not written are not given here.

How the values were obtained:
Type in all cases: in vivo, human
[1] = system: patients with BPH not previously on conventional oral medications; test: BPH study in patients never before on oral BPH medications, injection then oral medications, Symptom Score (Example Two)
Experimental: In a study of 30 patients who had not previously ever taken conventional approved oral medications for their BPH, the patients received a double-blind single injection of DRUG (n=21) or vehicle alone (placebo) (n=9) and were followed clinically for 2-5 years. Patients from both of the above drug and vehicle only placebo groups who had not previously received conventional oral medications and subsequently went on conventional oral medications were evaluated for their responses to the conventional oral BPH medications.

[2] = system: patients with BPH who subsequently underwent surgical treatment; test: BPH study: single injection, subsequent surgical treatment, Symptom Score (Example Four)
Excerpt: 973 patients who had not previously ever undergone surgical procedures for their BPH (including all types of surgical procedures such as transurethral resection of the prostate, laser ablation, microwave, needle ablation, and other minimally invasive surgical treatments) received a double-blind single injection of DRUG or vehicle alone (placebo) and were followed clinically for 2-5 years. All (N=58) patients from the above drug and vehicle alone placebo groups who had not previously undergone surgical treatment for their BPH and who subsequently underwent surgical treatment for their BPH (N=58) were then evaluated for their responses to the surgical procedures.

[3] = system: patients with benign prostatic hyperplasia (BPH); test: Double-blind BPH study, single intraprostatic injection followed by conventional oral BPH medications, IPSS (Example One); settings: NTP peptide plus additional oral medication vs placebo plus additional oral medication
Excerpt: In a study of 97 patients who had or had not previously ever taken conventional approved oral medications for their benign prostatic hyperplasia (BPH), the patients received a double-blind single injection of a specific peptide described by the amino acid sequence Ile-Asp-Gln-Gln-Val-Leu-Ser-Arg-Ile-Lys-Leu-Glu-Ile-Lys-Arg-Cys-Leu (hereinafter “DRUG”) (n=61) or vehicle alone (placebo) (n=36) and were followed clinically for 2-5 years. Patients with BPH were given an intraprostatic injection of either a) DRUG in phosphate buffered saline pH 7.2 (“PBS”) or b) PBS alone, under double-blind conditions by a urologist in an office setting under ultrasound guidance. Patients were followed for 2 to 5 years with regular physical examinations, laboratory tests, and evaluations of symptoms. […]
Symptomatic evaluation was measured by the International Prostate Symptom Score (IPSS) which is a quantitative scale used to gauge prostatic symptomatic improvement or worsening. The IPSS quantifies the following: 1) incomplete bladder emptying after urination; 2) frequent urination; 3) stopping and starting during urination; 4) urgent need to urinate; 5) weakness of urinary stream; 6) need to push or strain during urination; 7) need to urinate after going to sleep at night (nocturia). […]

[4] = system: patients with BPH; test: Cross-over study: BPH patients on PBS plus oral medication, then additional DRUG injection, IPSS (Example Three); settings: same patients after cross-over to DRUG vs PBS + oral medication
Experimental: In another study, patients with BPH were given an intraprostatic injection of PBS pH 7.2 vehicle alone, under double-blind conditions by a urologist in an office setting under ultrasound guidance. Patients were followed for 1 to 3 years with regular physical examinations, laboratory tests, and evaluations of symptoms. Patients who received PBS vehicle alone injections and who subsequently received in addition conventional oral medications used to treat BPH such as alpha blockers were assessed before and after receiving an additional injection of DRUG in phosphate buffered saline pH 7.2 (“PBS”). Symptomatic evaluation was measured by the International Prostate Symptom Score (IPSS) which is a quantitative scale used to gauge prostatic symptomatic improvement or worsening. The difference from baseline IPSS was compared in patients who were given blinded PBS only plus conventional oral medications vs results in the same patients on oral medications after cross-over to DRUG.

IDQQVLSRIKLEIKRCL [DRUG]
Mean IPSS Improvement, when compared to the control ([1]; naive patients, NTP peptide then oral medication vs placebo then oral medication): about 221%
mean improvement in Symptom Score ([1]; oral-medication-naive patients, single injection then conventional oral BPH medication, 2-5 years, n=21): 7.48 points
Mean IPSS Improvement, when compared to the control ([2]; NTP peptide prior to surgical treatment vs placebo prior to surgery): about 142%
mean improvement in Symptom Score after surgery ([2]; single injection, subsequent surgical treatment for BPH, n=31): 15.3 points
Mean IPSS Improvement, when compared to the control [3]: about 40%
Mean IPSS Improvement, when compared to the control [4]: about 110%
